Consider three substances from PMC7314547, “Echinoderms provide missing link in the evolution of PrRP/sNPF-type neuropeptide signalling” (eLife, 2020).

Entries after “also recorded” stand apart in the source; their conditions may differ. Where no end group is shown, it is not given here.

Assay [1] deals with A. rubens sNPF/PrRP-type receptor Ar-sNPF/PrRPR. Kind of assay: Receptor activation: luminescence of CHO-K1 cells expressing Ar-sNPF/PrRPR, Gα16 and apoaequorin-GFP fusion (G5A) (CHO-Ar-sNPF/PrRPR). Type of assay: cell-based, Asterias rubens. Particulars: for luminescence response / receptor activation (in words): at least three independent experiments in triplicate. On the procedure: A cDNA encoding Ar-sNPF/PrRPR was cloned and sequenced (Figure 3—figure supplement 1) and its sequence has been deposited in GenBank under accession number MH807444.1. […] The cloned receptor was then co-expressed with Gα16 in CHO-K1 cells expressing apoaequorin to produce the cell system CHO-Ar-sNPF/PrRPR. Synthetic ArPrRP (p[…]-NH2) was tested as a candidate ligand for Ar-sNPF/PrRPR at concentrations ranging from 10^−14 M to 10^−5 M, comparing with cells incubated in assay media without the addition of the peptide. […] Because ArPrRP contains a potential dibasic cleavage site (see underlined arginine residues in its sequence: p[…]-NH2), we hypothesised that the C-terminal pentapeptide of ArPrRP (LNPRFamide) may also be generated from ArPrRPP in vivo. Therefore, we also tested synthetic LNPRFamide as a candidate ligand for Ar-sNPF/PrRPR. […] Therefore, we conclude that the 22-residue amidated peptide ArPrRP is the natural ligand for Ar-sNPF/PrRPR in A. rubens.
Figure 5. A. rubens PrRP-like peptide ArPrRP acts as a ligand for the A. rubens sNPF/PrRP-type receptor Ar-sNPF/PrRPR. (A) The A. rubens PrRP-like peptide ArPrRP (10^−5 M; red bar) triggers luminescence in CHO-K1 cells expressing the A. rubens PrRP/sNPF-type receptor Ar-sNPF/PrRPR, the promiscuous G-protein Gα16 and the calcium-sensitive luminescent GFP-apoaequorin fusion protein G5A. For comparison, the background luminescence of cells that were not exposed to ArPrRP is shown (basal media; grey bar). Mean values (± S.E.M) were determined from three independent experiments performed in triplicate (B). Graph showing the selectivity of ArPrRP as a ligand for Ar-sNPF/PrRPR. […] Ar-sNPF/PrRPR is not activated by a C-terminal pentapeptide fragment of ArPrRP (LNPRFamide) or by the A. rubens luqin-type peptide ArLQ. Each point represents mean values (± S.E.M) from at least three independent experiments done in triplicate. The raw data for the experiments shown in Figure 5 and in Figure 5—figure supplement 2 can be found in Figure 5—source data 1. Figure 5—source data 1. Data for the graphs shown in Figure 5 and Figure 5—figure supplement 2. Figure 5—figure supplement 1. Predicted topology of Ar-sNPF/PrRPR. Seven predicted transmembrane domains are numbered successively in blue and two predicted N-glycosylation sites are shown with green boxes. This figure was generated using Protter (http://wlab.ethz.ch/protter/start/). [drawing 6] Figure 5—figure supplement 2. […] Each point represents mean values (± S.E.M.) from at least three independent experiments, with each experiment performed in triplicate. [drawing 7]
To enable the pharmacological characterisation of a candidate receptor for the A. rubens NPY/NPF/PrRP-like peptide, a cDNA encoding this receptor was cloned into the eukaryotic expression vector pcDNA 3.1(+) (Invitrogen; Cat. No. V790-20). To facilitate expression of the cloned receptor, the forward primer included a partial Kozak consensus sequence (ACC) and a sequence corresponding to the first 15 bases of the open reading frame of contig 1120879 (ACCATGCAGATGACAACC) and the reverse primer consisted of a stop codon and a sequence reverse complementary to the 3’ region of the open reading frame of contig 1120879 ([…]). PCR was performed using the forward primer and reverse primers, A. rubens radial nerve cord cDNA and Q5 polymerase (NEB; Cat. No. M0491S). […] Successful ligation and the direction of the insert was determined by restriction enzyme digestion and sequencing (TubeSeq service; Eurofins Genomics). […]

The test system of the next assay is NPR-11. The note with it: ref Chalasani et al., 2010; cited from earlier work. The text has this:
The nematode C. elegans is a powerful model system for functional characterisation of neuropeptide signalling systems ([Frooninckx et al., 2012]). However, NPY/NPF-type signalling has thus far only been partially characterised in this species. […] However, this peptide shares little sequence similarity with NPY/NPF-typ ...

Assay [2] deals with CHO-K1 cells transfected with an empty pcDNA 3.1(+) vector. Kind of assay: Control: luminescence of CHO-K1 (G5A) cells transfected with empty pcDNA 3.1(+) vector. In kind it is cell-based, Cricetulus griseus. The note with it: cells transfected with vector alone; at least three independent experiments in triplicate. On the procedure: A cDNA encoding Ar-sNPF/PrRPR was cloned and sequenced (Figure 3—figure supplement 1) and its sequence has been deposited in GenBank under accession number MH807444.1. […] The cloned receptor was then co-expressed with Gα16 in CHO-K1 cells expressing apoaequorin to produce the cell system CHO-Ar-sNPF/PrRPR. Synthetic ArPrRP (p[…]-NH2) was tested as a candidate ligand for Ar-sNPF/PrRPR at concentrations ranging from 10^−14 M to 10^−5 M, comparing with cells incubated in assay media without the addition of the peptide. […] Because ArPrRP contains a potential dibasic cleavage site (see underlined arginine residues in its sequence: p[…]-NH2), we hypothesised that the C-terminal pentapeptide of ArPrRP (LNPRFamide) may also be generated from ArPrRPP in vivo. Therefore, we also tested synthetic LNPRFamide as a candidate ligand for Ar-sNPF/PrRPR. […]
Figure 5. […] (A) The A. rubens PrRP-like peptide ArPrRP (10^−5 M; red bar) triggers luminescence in CHO-K1 cells expressing the A. rubens PrRP/sNPF-type receptor Ar-sNPF/PrRPR, the promiscuous G-protein Gα16 and the calcium-sensitive luminescent GFP-apoaequorin fusion protein G5A. For comparison, the background luminescence of cells that were not exposed to ArPrRP is shown (basal media; grey bar). Mean values (± S.E.M) were determined from three independent experiments performed in triplicate (B). […]

For the substance “LNPRFamide [C-terminal pentapeptide of ArPrRP]”, the “luminescence response / receptor activation (in words)” value in assay [1] was “did not induce luminescence responses; also recorded: not activated”.
For the substance MDANAFRMSF-NH2, the “receptor activation (in words)” value with NPR-11 is “only showed activation at peptide concentrations of 10 and 30 µM”.
Take “pQDRSKAMQAERTGQLRRLNPRF-NH2 [ArPrRP, 22-residue amidated starfish PrRP-type neuropeptide, custom synthesised]”: the “luminescence response (in words)” value in assay [2] is given as “no response; also recorded: does not trigger luminescence”. In assay [1], the “ligand potency (in words)” value is “potent ligand” and the “luminescence response / receptor activation (in words)” value is given as “induced dose-dependent luminescence; also recorded: causes dose-dependent luminescence”. In addition, the “luminescence response relative to background (basal media)” value in assay [1] (10^-5 M, mean of three independent experiments in triplicate) was “approximately five times the background luminescence”. Moreover, the EC50 in assay [1] (10^-14 M to 10^-5 M in DMEM/F12, luminescence integrated over 30 s, four-parameter curve, at least three independent transfections in triplicate, read-out: EC50 (half-maximal response concentration)) amounted to 0.15 nM.
